# Laboratory results: ChEMBL document CHEMBL6103585, “Construction and activity evaluation of novel CHS inhibitors against fungal infections” (Eur J Med Chem, 2025)
# Activity calls are given as the source filed them. The calls are words filed in the database; no cut-off is given here.
# Key:
# Candida albicans [1] = assay: Antifungal activity against Candida albicans ATCC SC5314 assessed as fungal growth inhibition incubated for 72 hrs by broth microdilution method; format: functional
# Candida tropicalis = assay: Antifungal activity against Candida tropicalis ATCC 1369 assessed as fungal growth inhibition incubated for 72 hrs by broth microdilution method; format: functional
# Cryptococcus neoformans = assay: Antifungal activity against Cryptococcus neoformans ZKCC 2209 assessed as fungal growth inhibition incubated for 72 hrs by broth microdilution method; format: functional
# Aspergillus fumigatus = assay: Antifungal activity against Aspergillus fumigatus KM 8001 assessed as fungal growth inhibition incubated for 72 hrs by broth microdilution method; format: functional
# Candida albicans [2] = assay: Antifungal activity against fluconazole-resistant Candida albicans CaR assessed as reduction in fungal growth incubated for 72 hrs by broth microdilution method; format: functional
# Candida albicans [3] = assay: Antifungal activity against fluconazole-resistant Candida albicans 17# assessed as reduction in fungal growth incubated for 72 hrs by broth microdilution method; format: functional
# Candida albicans [4] = assay: Antifungal activity against fluconazole-resistant Candida albicans 632 assessed as reduction in fungal growth incubated for 72 hrs by broth microdilution method; format: functional
# Candida albicans [5] = assay: Antifungal activity against fluconazole-resistant Candida albicans 901 assessed as reduction in fungal growth incubated for 72 hrs by broth microdilution method; format: functional
# Candida albicans [6] = assay: Antifungal activity against fluconazole-resistant Candida albicans 904 assessed as reduction in fungal growth incubated for 72 hrs by broth microdilution method; format: functional
# [7] = Inhibition of chitin synthase extracted from Candida tropicalis ATCC 1369 using UDP-GlcNAc as substrate incubated for 1 hrs
# Candida albicans [8] = assay: Induction of apoptosis in Candida albicans ATCC SC5314 assessed as viable cells by V-FITC/PI staining based flow cytometric analysis (reference value: 93.3%); format: functional
# Candida albicans [9] = assay: Induction of apoptosis in Candida albicans ATCC SC5314 assessed as early apoptotic cells by V-FITC/PI staining based flow cytometric analysis (reference value: 3.51%); format: functional
# Candida albicans [10] = assay: Induction of apoptosis in Candida albicans ATCC SC5314 assessed as late apoptotic cells by V-FITC/PI staining based flow cytometric analysis (reference value: 0.40%); format: functional
# Candida albicans [11] = assay: Induction of apoptosis in Candida albicans ATCC SC5314 assessed as necrotic cells by V-FITC/PI staining based flow cytometric analysis (reference value: 2.74%); format: functional
# Candida albicans [12] = assay: Fungicidal activity against Candida albicans ATCC SC5314 assessed as live cells (reference value: 92%); format: functional
# Candida albicans [13] = assay: Fungicidal activity against Candida albicans ATCC SC5314 assessed as dead cells (reference value: 8%); format: functional
# Candida albicans [14] = assay: In vivo antifungal activity against Candida albicans 901 infected in mouse model assessed as body weight gain at 5 microg/g, iv pre-infected with fungi by intravenous injection followed by compound administration and measured on day 8 in presence of 1-MT; format: functional, organism-based; conditions: dose 5.0 µg/g, time 8.0 day
# Candida albicans [15] = assay: (§1) In vivo antifungal activity against Candida albicans 901 infected in mouse model assessed as reduction in genetic material content in lung at 5 microg/g, iv pre-infected with fungi by intravenous injection followed by compound administration and measured on day 8 by H and E staining based analysis; format: functional, organism-based; conditions: dose 5.0 µg/g, time 8.0 day
# Candida albicans [16] = assay: as §1, with “recovery of alveolar structures to normal state” for “reduction in genetic material content”, “8 in presence of 1-MT” for “8”; format: functional, organism-based; conditions: dose 5.0 µg/g, time 8.0 day
# Candida albicans [17] = assay: as §1, with “8 in presence of 1-MT” for “8”; format: functional, organism-based; conditions: dose 5.0 µg/g, time 8.0 day
# Candida albicans [18] = assay: (§2) In vivo antifungal activity against Candida albicans 901 infected in mouse model assessed as decrease in IL-2 protein expression level at 5 microg/g, iv pre-infected with fungi by intravenous injection followed by compound administration and measured on day 8 by Western blotting analysis; format: functional, organism-based; conditions: dose 5.0 µg/g, time 8.0 day
# Candida albicans [19] = assay: as §2, with “8 in presence of BPE” for “8”; format: functional, organism-based; conditions: dose 5.0 µg/g, time 8.0 day
# Candida albicans [20] = assay: as §2, with “8 in presence of 1-MT” for “8”; format: functional, organism-based; conditions: dose 5.0 µg/g, time 8.0 day
# Candida albicans [21] = assay: (§3) In vivo antifungal activity against Candida albicans 901 infected in mouse model assessed as decrease in IFN-gamma protein expression level at 5 microg/g, iv pre-infected with fungi by intravenous injection followed by compound administration and measured on day 8 by Western blotting analysis; format: functional, organism-based; conditions: dose 5.0 µg/g, time 8.0 day
# Candida albicans [22] = assay: as §3, with “8 in presence of BPE” for “8”; format: functional, organism-based; conditions: dose 5.0 µg/g, time 8.0 day
# Candida albicans [23] = assay: (§4) In vivo antifungal activity against Candida albicans 901 infected in mouse model assessed as decrease in PD-L1 protein expression level at 5 microg/g, iv pre-infected with fungi by intravenous injection followed by compound administration and measured on day 8 by Western blotting analysis; format: functional, organism-based; conditions: dose 5.0 µg/g, time 8.0 day
# Candida albicans [24] = assay: as §4, with “8 in presence of 1-MT” for “8”; format: functional, organism-based; conditions: dose 5.0 µg/g, time 8.0 day
# Candida albicans [25] = assay: (§5) In vivo antifungal activity against Candida albicans 901 infected in mouse model assessed as decrease in IDO protein expression level at 5 microg/g, iv pre-infected with fungi by intravenous injection followed by compound administration and measured on day 8 by Western blotting analysis; format: functional, organism-based; conditions: dose 5.0 µg/g, time 8.0 day
# Candida albicans [26] = assay: as §5, with “8 in presence of BPE” for “8”; format: functional, organism-based; conditions: dose 5.0 µg/g, time 8.0 day
# Candida albicans [27] = assay: as §5, with “8 in presence of 1-MT” for “8”; format: functional, organism-based; conditions: dose 5.0 µg/g, time 8.0 day
# [28] = Toxicity in mouse infected with Candida albicans 901 assessed as change in AST level in presence of BPE (reference value: 76.1 +/-4.2 IU/L); conditions: in vivo
# [29] = Toxicity in mouse infected with Candida albicans 901 assessed as change in AST level in presence of 1-MT (reference value: 76.1 +/-4.2 IU/L); conditions: in vivo
# [30] = Toxicity in mouse infected with Candida albicans 901 assessed as change in ALT level (reference value: 42.8 +/-3.9 IU/L); conditions: in vivo
# [31] = Toxicity in mouse infected with Candida albicans 901 assessed as change in ALT level in presence of BPE (reference value: 42.8 +/-3.9 IU/L); conditions: in vivo
# [32] = Toxicity in mouse infected with Candida albicans 901 assessed as change in ALT level in presence of 1-MT (reference value: 42.8 +/-3.9 IU/L); conditions: in vivo
# [33] = Toxicity in mouse infected with Candida albicans 901 assessed as change in CRE level (reference value: 21.5 +/-1.7 umol/L); conditions: in vivo
# [34] = Toxicity in mouse infected with Candida albicans 901 assessed as change in BUN level (reference value: 11.4 +/-1.5 mmol/L); conditions: in vivo
# [35] = Toxicity in mouse infected with Candida albicans 901 assessed as change in BUN level in presence of BPE (reference value: 11.4 +/-1.5 mmol/L); conditions: in vivo
smiles,measurement,setting,value
O=C(CNC(=O)c1nc2ccc(Cl)cc2c(=O)[nH]1)NCC(=O)c1ccccc1,MIC50,Candida albicans [1],1 µg/mL
same,MIC50,Candida tropicalis,0.5 µg/mL
same,MIC50,Cryptococcus neoformans,1 µg/mL
same,MIC50,Aspergillus fumigatus,2 µg/mL
same,MIC50,Candida albicans [2],2 µg/mL
same,MIC50,Candida albicans [3],4 µg/mL
same,MIC50,Candida albicans [4],2 µg/mL
same,MIC50,Candida albicans [5],4 µg/mL
same,MIC50,Candida albicans [6],4 µg/mL
same,IC50,[7],14.7 µM
same,Activity,Candida albicans [8],57.1%
same,Activity,Candida albicans [9],14.9%
same,Activity,Candida albicans [10],12.1%
same,Activity,Candida albicans [11],15.9%
same,Activity,Candida albicans [12],3%
same,Activity,Candida albicans [13],97%
same,Activity,Candida albicans [14],Active
same,Activity,Candida albicans [15],Active
same,Activity,Candida albicans [16],Active
same,Activity,Candida albicans [17],Active
same,Activity,Candida albicans [18],Active
same,Activity,Candida albicans [19],Active
same,Activity,Candida albicans [20],Active
same,Activity,Candida albicans [21],Active
same,Activity,Candida albicans [22],Active
same,Activity,Candida albicans [23],Active
same,Activity,Candida albicans [24],Active
same,Activity,Candida albicans [25],Active
same,Activity,Candida albicans [26],Active
same,Activity,Candida albicans [27],Active
same,Activity,[28],70.4 IU/L
same,Activity,[29],74.6 IU/L
same,Activity,[30],33.6 IU/L
same,Activity,[31],43.6 IU/L
same,Activity,[32],40.2 IU/L
same,Activity,[33],18.7 µmol/L
same,Activity,[34],8.2 mmol/L
same,Activity,[35],9.5 mmol/L
